Experimental data taken from the supplement of paper PMC10307832.

Experiments:
Assay in all cases: relative viability (nuclei count vs DMSO), 5 days (fraction); higher = more cells survive
[1] = compound: O=S(=O)(c1ccccc1)N(CC(F)(F)F)c1ccc(C(O)(C(F)(F)F)C(F)(F)F)cc1 + C[C@@H](Oc1cc(-c2cnn(C3CCNCC3)c2)cnc1N)c1c(Cl)ccc(F)c1Cl [Crizotinib] (partner 1 µM)
Summary of the method: (§1)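 Lung cancer cell lines were pin-tool dosed in 1536-well plates on the day after seeding, with either a lone drug or a fixed anchor-drug dose plus five library-drug doses (not always all listed) in √10 steps. Nuclei were counted on 4× images after 5 days. Relative viability is the ratio of treated-well to vehicle-well nuclei counts, with each value a median of duplicate plates.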

[2] = compound: O=S(=O)(c1ccccc1)N(CC(F)(F)F)c1ccc(C(O)(C(F)(F)F)C(F)(F)F)cc1 + O=C(CCCCCCC(=O)Nc1ccccc1)NO [Vorinostat] (partner 1 µM)
Summary of the method: as §1

RO-3306 + Bortezomib = compound: C1=CC2=C(C=CC(=C2)C=C3C(=O)NC(=NCC4=CC=CS4)S3)N=C1 [RO-3306] + CC(C)C[C@H](NC(=O)[C@H](Cc1ccccc1)NC(=O)c1cnccn1)B(O)O [Bortezomib] (partner 0.002 µM)
Summary of the method: as §1

RO-3306 + Tozasertib = compound: C1=CC2=C(C=CC(=C2)C=C3C(=O)NC(=NCC4=CC=CS4)S3)N=C1 [RO-3306] + Cc1cc(Nc2cc(N3CCN(C)CC3)nc(Sc3ccc(NC(=O)C4CC4)cc3)n2)n[nH]1 [Tozasertib] (partner 0.1 µM)
Summary of the method: as §1

Cell Line | relative viability ([1]; first compound 0.8 µM) | relative viability ([1]; first compound 2.53 µM) | relative viability ([1]; first compound 8 µM) | relative viability ([2]; first compound 0.8 µM) | relative viability ([2]; first compound 2.53 µM) | relative viability ([2]; first compound 8 µM) | relative viability (RO-3306 + Bortezomib; first compound 0.01 µM) | relative viability (RO-3306 + Bortezomib; first compound 0.03162 µM) | relative viability (RO-3306 + Bortezomib; first compound 0.1 µM) | relative viability (RO-3306 + Bortezomib; first compound 0.3162 µM) | relative viability (RO-3306 + Bortezomib; first compound 1 µM) | relative viability (RO-3306 + Tozasertib; first compound 0.01 µM) | relative viability (RO-3306 + Tozasertib; first compound 0.03162 µM) | relative viability (RO-3306 + Tozasertib; first compound 0.1 µM) | relative viability (RO-3306 + Tozasertib; first compound 0.3162 µM) | relative viability (RO-3306 + Tozasertib; first compound 1 µM)
IA-LM | 0.863 | 0.652 | 0.906 | 0.917 | 0.757 | 0.553 | 0.86 | 0.8 | 0.745 | 0.6 | 0.969 | – | – | – | – | –
LC-2-ad | 0.478 | 0.498 | 0.443 | 0.734 | 0.657 | 0.602 | 1.1 | 0.976 | 0.965 | 1.09 | 0.712 | 0.433 | 0.404 | 0.44 | 0.485 | 0.404
LCLC-97TM1 | 0.314 | 0.371 | 0.297 | – | 0.562 | 0.567 | 1.06 | – | 0.689 | 0.455 | 0.531 | 0.224 | 0.22 | 0.175 | 0.205 | 0.172
LCLC-103H | 1.14 | 1.13 | 1.15 | 0.859 | 0.746 | 0.78 | 1.06 | 1.03 | 1.01 | 0.927 | 0.815 | 0.439 | 0.45 | 0.405 | 0.458 | 0.499
LK-2 | 0.2 | 0.229 | 0.242 | 0.27 | 0.247 | 0.346 | – | – | – | – | – | 0.183 | – | 0.164 | 0.167 | 0.169
LOU-NH91 | 0.748 | 0.775 | 0.753 | 0.985 | 0.913 | 1.04 | 0.557 | 0.491 | 0.441 | 0.483 | 0.442 | 0.667 | 0.63 | 0.669 | 0.638 | 0.561
LU99A | 0.634 | 0.465 | 0.516 | 0.568 | 0.462 | 0.401 | 1.38 | 1.09 | 1.04 | 0.98 | 1.07 | 0.285 | 0.257 | 0.258 | 0.254 | 0.231
LXF-289 | 0.793 | 0.721 | 0.689 | 0.719 | 0.656 | 0.74 | 0.992 | 0.928 | 1.05 | 0.95 | 0.929 | 0.216 | 0.199 | 0.187 | 0.181 | 0.199
NCI-H23 | 0.471 | 0.452 | 0.513 | 0.75 | 0.622 | 0.725 | 1.04 | 0.755 | 1.1 | 0.944 | 0.773 | 0.279 | 0.304 | 0.394 | 0.124 | 0.301
NCI-H322M | 0.981 | 0.835 | 0.743 | 0.883 | 0.842 | 0.869 | 1.17 | 1.12 | 1.19 | 1.32 | 1.22 | 0.549 | 0.467 | 0.443 | 0.476 | 0.432
NCI-H358 | 0.606 | 0.515 | 0.512 | – | 0.581 | 0.541 | – | – | – | – | – | 0.0852 | 0.0922 | 0.103 | 0.102 | 0.101
NCI-H441 | 0.992 | 0.869 | 0.717 | 0.464 | 0.85 | 0.781 | 0.771 | 0.4 | 0.647 | 0.449 | 0.31 | 0.587 | 0.527 | 0.604 | 0.538 | 0.481
NCI-H460 | 0.824 | 1.03 | 1 | 0.847 | 0.673 | 0.618 | 1.37 | – | 1.1 | 1.34 | 0.776 | 0.217 | 0.542 | 0.392 | 0.116 | 0.0669
NCI-H522 | – | – | – | 0.833 | 0.973 | 0.959 | – | – | – | – | – | 0.545 | 0.495 | 0.595 | 0.567 | 0.5
NCI-H1299 | 0.958 | 0.942 | 0.906 | – | – | – | 1.07 | 1.07 | 1.04 | 1.07 | 1.05 | – | – | – | – | –
NCI-H1395 | – | – | – | 0.532 | 0.594 | 0.759 | – | – | – | – | – | 0.635 | 0.681 | 0.749 | 0.696 | 0.643
NCI-H1563 | 0.873 | 0.742 | 0.733 | – | – | – | 0.921 | 0.75 | 0.787 | 0.939 | 0.753 | – | – | – | – | –
NCI-H1623 | – | – | – | – | – | – | – | – | – | – | – | 0.45 | 0.409 | 0.442 | 0.446 | 0.391
NCI-H1648 | – | – | – | 0.41 | 0.387 | 0.312 | – | – | – | – | – | 0.406 | – | 0.558 | 0.362 | 0.478
NCI-H1703 | 0.676 | 0.701 | 0.588 | – | – | – | 0.646 | 0.261 | 0.349 | 0.203 | 0.289 | – | – | – | – | –
NCI-H1792 | 0.843 | 0.75 | 0.818 | – | – | – | 1.17 | – | 0.95 | 0.991 | 0.538 | – | – | – | – | –
NCI-H1793 | – | – | – | 0.574 | 0.539 | 0.521 | – | – | – | – | – | 0.313 | 0.344 | 0.338 | 0.283 | 0.291
NCI-H1944 | 1.2 | 1.11 | 1.04 | 0.686 | 0.561 | 0.521 | – | – | – | – | – | 0.235 | 0.25 | 0.234 | 0.259 | 0.242
NCI-H2170 | 1.25 | 1.19 | 1.21 | 0.863 | 0.695 | 0.761 | – | – | – | – | – | 0.689 | 0.933 | 0.663 | 0.804 | 0.679
NCI-H2342 | – | – | – | 0.8 | 0.841 | 0.741 | – | – | – | – | – | 0.54 | 0.537 | 0.492 | 0.47 | 0.506
SK-MES-1 | 1.02 | 1 | 0.903 | 1.09 | 1.18 | 0.915 | – | – | – | – | – | 1.02 | 1 | 1.01 | 0.807 | 0.585
SW 900 | – | – | – | 0.498 | 0.498 | 0.699 | – | – | – | – | – | 0.659 | 0.474 | 0.444 | 0.438 | 0.329
